Where “and” joins values, the source holds several entries; their conditions need not be identical. Identical values can stand only once.
Assays:
[1] = tested on: ischemia-induced arrhythmias; assay: Arrhythmias during myocardial ischemia in dogs (electrocardiogram); assay type: in vivo, dog; conditions: individual treated dogs 1-6
Method: (§1) Thirteen mongrel dogs were anesthetized with phenobarbital. […] C.V. Dis. 20; 55 (1977). […] Two of the surviving saline-treated animals fibrillated. […] The range was 4.4 to 100 μM.
One consequence of myocardial ischemia is arrhythmia and the frequency of arrhythmias is related to the degree of reduced blood flow. […] Electrocardiograms recorded during ischemia of Example III were analyzed for the number of premature ventricular depolarizations (PVD) and ventricular tachycardia (VTAC) episodes.

[2] = tested on: HPRT+ neuroblastoma cells; assay: Adenosine excretion by stimulated HPRT+ neuroblastoma cells (calcium ionophore A23187); assay type: cell-based
Method: (§2) To induce ATP catabolism, the growth medium was replaced by medium containing micromolar amounts of the calcium ionophore A23187 and 1.0 μM deoxycoformycin.

[3] = tested on: pentylene tetrazol-induced seizures; assay: Pentylene tetrazol-induced seizures in the rat; assay type: in vivo; conditions: 2000 mg/kg (total dose) intraperitoneal
[4] = tested on: HPRT- neuroblastoma cells; assay: Adenosine excretion by stimulated HPRT- neuroblastoma cells (calcium ionophore A23187); assay type: cell-based; conditions: for correction of lowered adenosine secretion of cells deficient in hypoxanthine phosphoribosyl transferase: pretreatment
Method: as §2

[5] = tested on: patients with adenylosuccinase deficiency (autism); assay: Therapeutic trial in patients with adenylosuccinase deficiency (autism); assay type: in vivo, human
Source text: Following authorization, therapeutic trials with AICA riboside were started in two patients with adenylosuccinase deficiency (autism). […] On Day 55, both patients were briefly readmitted for clinical, biochemical and psychiatric evaluation. […] Treatment was maintained until Day 71, and arrested at that date.

[6] = tested on: human splenic lymphoblast cell line (WI-L2); assay: Adenosine release by WI-L2 lymphoblasts during ATP breakdown (2-deoxyglucose); assay type: cell-based
Method: The history and properties of the cell line have been described by Hershfield et al. in Science, Vol. 197, p. 1284, 1977.
Catabolism of cellular ATP stores was stimulated by adding either 2-deoxyglucose or a calcium ionophore. At various times, the amount of adenosine released by the cells into the supernatant, or the amount of nucleotides remaining in the cells, was determined by mixing 3 μl of chilled 4.4N perchloric acid with 300 μl of supernatants, or by adding 300 μl of chilled 0.4N perchloric acid to the cell collected as pellets and centrifuging the mixtures at 500×G for 10 minutes at 4° C. […] 1245, 1975. Following centrifugation at 1500×G for three minutes at 4° C., the aqueous phase is removed and frozen at -20° C. until assayed for adenosine, inosine, or for nucleotides. Adenosine was evaluated isocratically on a C-18 microBondapak reverse phase column equilibrated with 4 millimolar potassium phosphate, (pH 3.4):acetonitrile 60% in water (95:5 v/v) buffer. Adenosine elutes at 8-10 minutes, and its identity was confirmed by its sensitivity to adenosine deaminase and by spiking with adenosine standards. The extracted samples from the cell pellet were analyzed for nucleotides by high pressure liquid chromatography on a Whatman Partisil-10 (SAX) column equilibrated with 10 millimolar potassium phosphate, pH 3.78, and eluted with a linear gradient to a 0.25 molar potassium phosphate, 0.5 molar KCl, pH 3.45. […] Peaks were quantitated by comparison with high pressure liquid chromatography analysis of suitable standards.
Cells were grown to about 0.5×10^6 cells/ml (mid-log phase) in FIG. 2 and to about 1.0×10^6 cells/ml (early stationary phase) in FIGS. 7-9.

[7] = tested on: Mouse bone marrow-derived mast cells; assay: Mast cell leukotriene C4 release (radioimmune assay); assay type: cell-based; conditions: 100 μM for six days, challenged 20 minutes with A23187; control 51
Method: (§3) By preventing mast cell degranulation, it is possible to prevent or control a patient's allergic response. Bone marrow obtained from Balb/C mice femurs was cultured in a 1:1 mixture of Razin media and conditioned media, produced by co-culturing splenocytes from C57B1/6J and C3H mice in the present of Concanavalin A as described by Razin et al. in the Proc. Natl. Acad. Sci. USA 28: 2559-2561, 1981. After weekly passaging and at least 15 days in tissue culture, the resulting cells were 90% pure mast cells and 95% viable as assessed by Trypan blue exclusion. Cells exposed to ribavirin in culture were washed three times prior to use in experiments. Parallel cultures of cells grown in media alone were used as controls for pharmacologically manipulated mast cells. Cell growth was assessed by counting cells at particular time pints and comparing actual numbers of ribavirin-treated cells to numbers of cells grown in media alone.

ischemic myocardium [8] = tested on: ischemic myocardium
Method: Regional myocardial blood flow was measured using radiolabelled microspheres infused into the left atrium at 5 minutes (open) and 60 minutes (hatched) of occlusion. The means plus the standard deviations are graphed. The asterisks (*) identify differences from saline-treated dogs that are significant at p<0.01.
Thirteen mongrel dogs were anesthetized with phenobarbital. The anterior coronary vein was cannulated and a blood sample was collected into 2N perchloric acid. […] Regional myocardial blood flow was measured within 15 μm radiolabelled spheres infused into the left atrium at 5 and 60 minutes during the ischemic period, as described by Heymann et al. in Prog. […] The electrocardiogram and arterial pressure were monitored throughout the period of ischemia.

ischemic myocardium [9] = assay: Coronary venous adenosine during coronary artery occlusion in dogs; assay type: in vivo, dog
Method: FIG. 3. […] Coronary venous blood was collected into chilled 2N perchloric acid at various times before and after coronary artery occlusion. Supernatants from these extracts were neutralized with alamine and freon and evaluated by high performance liquid chromotography.
as §1

[10] = tested on: Mouse bone marrow-derived mast cells; assay: Mast cell beta-hexosaminidase release (degranulation); assay type: cell-based
Method: as §3
β-hexosaminidase was chosen as a representative granule-associated, preformed mast cell mediator because it is easily quantitated, and its release nearly identically parallels that of histamine. Mouse bone marrow-derived mast cells were centrifuged at 200×g for 5 minutes, washed three times in Tyrode's buffer lacking divalent cations, sensitized for 30 minutes at 37° C. with anti-DNP (dinitrophenyl phosphate) IgE (1 μg/10^6 cells), and challenged with either DNP-BSA antigen ([…]/3×10^5 cells) or A23187 (10 μg/ml/3×10^5 cells) in 400 μl of complete Tyrode's buffer for 10 minutes at 37° C. Reaction mixtures were centrifuged at 200×g for 10 minutes, and supernatant and pellet β-hexasaminidase concentrations were assayed by the hydrolysis of p-nitrophenyl-β-D-glucosamide as described in Schwartz et al. in J. Immunol. […] Spontaneous β-hexosaminidase release was determined in unchallenged cells. The net % of β-hexosaminidase released is defined as follows: [formula] where [β-hex] is βhexosaminidase and super, is supernatant. When exogenous adenosine was present in reaction mixtures, it was added simultaneously with the secretagogue.

ischemic myocardium [11] = assay: Venous inosine levels during coronary artery occlusion in dogs; assay type: in vivo, dog; conditions: over the 60-minute assay period
Method: as §1
That the increase in the levels of adenosine is due, at least in part, to a reduction in the amount of ATP that is converted to inosine was shown by analysis of venous blood from dogs in Example III for inosine levels.

AMP deaminase = AMP deaminase inhibition (14C-AMP to 14C-IMP conversion, lymphoblast lysate); assay type: biochemical, human; conditions: 200 μM of each ribotide
[12] = three-hour preincubation and four-hour incubation during 2-deoxyglucose treatment

## NC(=O)c1ncn([C@@H]2O[C@H](CO)[C@@H](O)[C@H]2O)c1N [AICA riboside, 5-amino-4-imidazolecarboxamide riboside]
[1]
  PVD, individual dogs: 12 EPISODES/H and 10 EPISODES/H and 4 EPISODES/H and 13 EPISODES/H and 6 EPISODES/H
  VTAC, individual dogs: 1 EPISODES/H and 0 EPISODES/H and 27 EPISODES/H
[2]; 50 μM AICA riboside, A23187 and 1.0 μM deoxycoformycin
  adenosine secreted by treated cells versus control cells: at least twofold more adenosine
[2]; HPRT+ cells, ionophore 0 μg/ml, AICA riboside 50 μM
  Concentration of Adenosine: < 0.01 µM
[3]
  latency to seizure: dramatic prolongation
[4]; HPRT- cells, ionophore 0 μg/ml, AICA riboside 50 μM
  Concentration of Adenosine: < 0.01 µM
[4]
  correction of lowered adenosine secretion of cells deficient in hypoxanthine phosphoribosyl transferase: can be corrected
[5]; all dosages used
  AICA riboside in plasma and CSF: could not be detected
[5]; before and during the trial treatment
  haematology and clinical chemistry parameters: found normal
[5]; one hour after intravenous administration, 20 mg/kg/day
  AICA riboside in plasma: undetectable
[5]; patients
  concentration of ATP and GTP in the erythrocytes: did not influence significantly
  urinary output of succinyladenosine, SAICA riboside and uric acid: without significant effect
[6]; 48-hour pretreatment, 100-500 micromolar
  adenosine release from lymphoblasts: enhances adenosine release
[6]; 18 hours preincubation before 2-deoxyglucose exposure
  adenosine release from lymphoblasts: enhanced adenosine release
[6]; [12]
  adenosine release from lymphoblasts: increased adenosine release
[7]
  supernatant leukotriene C4 concentration: 13 nanograms/106 cells
Ischemic myocardium [8]; dog, in vivo
  systemic arterial pressure and heart rate versus saline: no significant differences
Ischemic myocardium [8]; non-ischemic tissue
  flow to normal myocardium: did not alter flow
Ischemic myocardium [9]; at 1 minute of ischemia, saline peak 0.22 ±0.08 at 10 minutes
  peak coronary venous adenosine level: 1.79 ± 0.35 µM
Ischemic myocardium [9]; at 60 minutes of ischemia, saline undetectable, in µM
  coronary venous adenosine level: 0.18±0.15
Ischemic myocardium [9]; reperfusion
  adenosine washout on reperfusion: significant rise
Ischemic myocardium [9]; systemic sampling
  adenosine in blood from the right atrium (systemic blood): no detectable adenosine
[10]; 100 micromolar, A23187 1 μg/ml, 28.8% in its absence
  β-hexosaminidase released: 17.6%
Ischemic myocardium [11]
  inosine levels in venous blood: more than twofold decrease

## NC(=O)c1ncn([C@@H]2O[C@H](COP(=O)(O)O)[C@@H](O)[C@H]2O)n1 [ribavirin monophosphate]
AMP deaminase
  AMP deaminase inhibited: 54%

## NC(=O)c1ncn([C@@H]2O[C@H](COP(=O)(O)O)[C@@H](O)[C@H]2O)c1N [AICA ribotide]
AMP deaminase
  AMP deaminase inhibited: 38%

## NC(=O)c1ncn([C@@H]2O[C@H](CO)[C@@H](O)[C@H]2O)n1 [ribavirin, 1-β-D-ribofuranosyl-1H-1,2,4-triazole-3-carboxamide, reference compound]
[4]
  correction of lowered adenosine secretion of cells deficient in hypoxanthine phosphoribosyl transferase: can be corrected
[6]; [12]
  adenosine release from lymphoblasts: Increased in vitro adenosine release
[6]; three-hour preincubation and four-hour incubation during 2-deoxyglucose treatment, listed as ribivirin
  adenosine release from lymphoblasts: increased adenosine release
[10]; 1 μM for six days
  mediator release: inhibits mediator release significantly
[10]; 1, 10, or 2 μm for six days, challenged with A23187
  net β-hexosaminidase release versus controls: released significantly less
[10]; three to seven days in 10 μM, washed, challenged with A23187, p<0.05
  β-hexosaminidase release compared to cells cultured in media alone: marked attenuation
